The results in this text go back to publication PMC7486443, “Generation of Phenothiazine with Potent Anti-TLK1 Activity for Prostate Cancer Therapy” (iScience, 2020).

Among the targets are MET (Homo sapiens, UniProt P08581); MKNK2 (Homo sapiens, UniProt Q9HBH9); WNK3 (Homo sapiens, UniProt Q9BYP7); FER (Homo sapiens, UniProt P16591); GSK3A (Homo sapiens, UniProt P49840); CSF1R (Homo sapiens, UniProt P07333); GAK (Homo sapiens, UniProt O14976); WNK1 (Homo sapiens, UniProt Q9H4A3); BUB1 (Homo sapiens, UniProt O43683); LRRK2(G2019S) (Homo sapiens, UniProt Q5S007, G2019S); SRPK2 (Homo sapiens, UniProt P78362); RAF1 (Homo sapiens, UniProt P04049).

Common to all, as to assay: biochemical
Holding throughout (design): DiscoverX KINOMEscan scanMAX competition binding panel, single concentration, percent of control; remaining binding: dose or concentration left out as unconfirmed
Common to all, as to conditions: KINOMEscan binding, percent of control; read-out: Table S4_SCANMAX REPORT - related to Fig. 1 / Percent Control

The next assay concerns the target T1, GCN2(Kin.Dom.2,S808G) (Homo sapiens, UniProt Q9P2K8, S808G).
T1 construct: gene EIF2AK4; Kin.Dom.2

A further assay deals with T2, AMPK-alpha1 (Homo sapiens, UniProt Q13131).
T2 construct: gene PRKAA1

The target of assay [1] is T3, RSK1(Kin.Dom.2-C-terminal) (Homo sapiens, UniProt Q15418).
T3 construct: gene RPS6KA1; Kin.Dom.2-C-terminal

A further assay concerns the target T4, MST4 (Homo sapiens, UniProt Q9P289).
T4 construct: gene STK26

A further assay addresses T5, YSK1 (Homo sapiens, UniProt O00506).
T5 construct: gene STK25

For another assay, the target named is T6, CDC2L2 (Homo sapiens, UniProt Q9UQ88).
T6 construct: gene CDK11A

T2 sequence (Q13131 whole entry): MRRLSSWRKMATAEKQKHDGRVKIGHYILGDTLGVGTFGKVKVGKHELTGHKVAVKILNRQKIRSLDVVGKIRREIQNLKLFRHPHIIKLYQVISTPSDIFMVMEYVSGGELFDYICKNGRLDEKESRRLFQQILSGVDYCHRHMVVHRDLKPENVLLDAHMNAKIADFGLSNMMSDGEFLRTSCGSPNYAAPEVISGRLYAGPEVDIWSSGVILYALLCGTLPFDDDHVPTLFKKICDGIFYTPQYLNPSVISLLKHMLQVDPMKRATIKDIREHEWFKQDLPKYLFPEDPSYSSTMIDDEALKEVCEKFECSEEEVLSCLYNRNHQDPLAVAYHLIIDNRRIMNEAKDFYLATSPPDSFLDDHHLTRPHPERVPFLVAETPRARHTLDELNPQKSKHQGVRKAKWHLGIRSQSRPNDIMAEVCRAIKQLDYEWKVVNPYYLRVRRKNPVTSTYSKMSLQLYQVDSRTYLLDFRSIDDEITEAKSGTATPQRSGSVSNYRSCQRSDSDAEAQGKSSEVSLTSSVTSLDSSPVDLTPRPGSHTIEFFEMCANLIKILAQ
Sequence of SRPK2 (P78362 whole entry): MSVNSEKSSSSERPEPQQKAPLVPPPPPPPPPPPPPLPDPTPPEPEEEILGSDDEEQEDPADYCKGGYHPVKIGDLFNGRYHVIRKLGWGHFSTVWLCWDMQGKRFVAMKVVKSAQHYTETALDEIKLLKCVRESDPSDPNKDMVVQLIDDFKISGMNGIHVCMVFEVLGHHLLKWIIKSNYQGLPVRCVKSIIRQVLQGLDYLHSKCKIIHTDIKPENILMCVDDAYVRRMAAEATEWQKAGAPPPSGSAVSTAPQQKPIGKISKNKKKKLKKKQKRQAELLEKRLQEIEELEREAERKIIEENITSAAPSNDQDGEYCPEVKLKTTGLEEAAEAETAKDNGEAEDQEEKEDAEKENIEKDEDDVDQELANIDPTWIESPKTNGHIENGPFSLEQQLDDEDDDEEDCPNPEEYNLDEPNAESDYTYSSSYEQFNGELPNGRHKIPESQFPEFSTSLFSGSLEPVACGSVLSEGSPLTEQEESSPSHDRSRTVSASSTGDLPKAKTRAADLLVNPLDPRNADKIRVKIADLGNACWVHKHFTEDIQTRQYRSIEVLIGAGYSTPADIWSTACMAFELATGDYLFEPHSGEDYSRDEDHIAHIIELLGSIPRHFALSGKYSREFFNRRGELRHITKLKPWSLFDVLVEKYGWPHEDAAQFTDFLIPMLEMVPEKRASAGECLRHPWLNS
Sequence of CSF1R (P07333 whole entry): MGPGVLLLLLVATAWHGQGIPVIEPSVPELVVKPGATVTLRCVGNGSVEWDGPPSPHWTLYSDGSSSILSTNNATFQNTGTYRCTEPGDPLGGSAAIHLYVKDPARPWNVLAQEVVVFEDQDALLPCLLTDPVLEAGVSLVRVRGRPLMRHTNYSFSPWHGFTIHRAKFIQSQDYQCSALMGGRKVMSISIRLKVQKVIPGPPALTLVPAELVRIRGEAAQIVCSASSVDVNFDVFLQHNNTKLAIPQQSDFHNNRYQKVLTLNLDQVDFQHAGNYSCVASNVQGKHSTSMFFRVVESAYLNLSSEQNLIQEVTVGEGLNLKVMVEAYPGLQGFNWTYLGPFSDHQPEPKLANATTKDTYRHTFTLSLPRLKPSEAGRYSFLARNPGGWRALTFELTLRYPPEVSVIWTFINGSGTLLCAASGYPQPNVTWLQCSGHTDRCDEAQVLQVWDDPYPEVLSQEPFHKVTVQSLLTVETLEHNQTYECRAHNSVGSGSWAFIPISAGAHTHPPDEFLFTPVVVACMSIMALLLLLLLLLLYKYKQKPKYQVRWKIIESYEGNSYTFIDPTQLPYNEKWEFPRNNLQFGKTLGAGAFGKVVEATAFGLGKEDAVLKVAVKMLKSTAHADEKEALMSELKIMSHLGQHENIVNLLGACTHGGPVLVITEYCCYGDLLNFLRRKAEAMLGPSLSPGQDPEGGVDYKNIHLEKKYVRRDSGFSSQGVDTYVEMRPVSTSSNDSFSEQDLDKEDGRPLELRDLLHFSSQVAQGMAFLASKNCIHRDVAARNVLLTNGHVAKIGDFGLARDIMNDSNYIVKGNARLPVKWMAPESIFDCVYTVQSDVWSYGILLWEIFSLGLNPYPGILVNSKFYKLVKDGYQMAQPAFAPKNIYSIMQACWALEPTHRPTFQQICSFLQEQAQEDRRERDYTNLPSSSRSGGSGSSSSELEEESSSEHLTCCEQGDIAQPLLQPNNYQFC
Sequence of LRRK2(G2019S) (Q5S007 whole entry G2019S): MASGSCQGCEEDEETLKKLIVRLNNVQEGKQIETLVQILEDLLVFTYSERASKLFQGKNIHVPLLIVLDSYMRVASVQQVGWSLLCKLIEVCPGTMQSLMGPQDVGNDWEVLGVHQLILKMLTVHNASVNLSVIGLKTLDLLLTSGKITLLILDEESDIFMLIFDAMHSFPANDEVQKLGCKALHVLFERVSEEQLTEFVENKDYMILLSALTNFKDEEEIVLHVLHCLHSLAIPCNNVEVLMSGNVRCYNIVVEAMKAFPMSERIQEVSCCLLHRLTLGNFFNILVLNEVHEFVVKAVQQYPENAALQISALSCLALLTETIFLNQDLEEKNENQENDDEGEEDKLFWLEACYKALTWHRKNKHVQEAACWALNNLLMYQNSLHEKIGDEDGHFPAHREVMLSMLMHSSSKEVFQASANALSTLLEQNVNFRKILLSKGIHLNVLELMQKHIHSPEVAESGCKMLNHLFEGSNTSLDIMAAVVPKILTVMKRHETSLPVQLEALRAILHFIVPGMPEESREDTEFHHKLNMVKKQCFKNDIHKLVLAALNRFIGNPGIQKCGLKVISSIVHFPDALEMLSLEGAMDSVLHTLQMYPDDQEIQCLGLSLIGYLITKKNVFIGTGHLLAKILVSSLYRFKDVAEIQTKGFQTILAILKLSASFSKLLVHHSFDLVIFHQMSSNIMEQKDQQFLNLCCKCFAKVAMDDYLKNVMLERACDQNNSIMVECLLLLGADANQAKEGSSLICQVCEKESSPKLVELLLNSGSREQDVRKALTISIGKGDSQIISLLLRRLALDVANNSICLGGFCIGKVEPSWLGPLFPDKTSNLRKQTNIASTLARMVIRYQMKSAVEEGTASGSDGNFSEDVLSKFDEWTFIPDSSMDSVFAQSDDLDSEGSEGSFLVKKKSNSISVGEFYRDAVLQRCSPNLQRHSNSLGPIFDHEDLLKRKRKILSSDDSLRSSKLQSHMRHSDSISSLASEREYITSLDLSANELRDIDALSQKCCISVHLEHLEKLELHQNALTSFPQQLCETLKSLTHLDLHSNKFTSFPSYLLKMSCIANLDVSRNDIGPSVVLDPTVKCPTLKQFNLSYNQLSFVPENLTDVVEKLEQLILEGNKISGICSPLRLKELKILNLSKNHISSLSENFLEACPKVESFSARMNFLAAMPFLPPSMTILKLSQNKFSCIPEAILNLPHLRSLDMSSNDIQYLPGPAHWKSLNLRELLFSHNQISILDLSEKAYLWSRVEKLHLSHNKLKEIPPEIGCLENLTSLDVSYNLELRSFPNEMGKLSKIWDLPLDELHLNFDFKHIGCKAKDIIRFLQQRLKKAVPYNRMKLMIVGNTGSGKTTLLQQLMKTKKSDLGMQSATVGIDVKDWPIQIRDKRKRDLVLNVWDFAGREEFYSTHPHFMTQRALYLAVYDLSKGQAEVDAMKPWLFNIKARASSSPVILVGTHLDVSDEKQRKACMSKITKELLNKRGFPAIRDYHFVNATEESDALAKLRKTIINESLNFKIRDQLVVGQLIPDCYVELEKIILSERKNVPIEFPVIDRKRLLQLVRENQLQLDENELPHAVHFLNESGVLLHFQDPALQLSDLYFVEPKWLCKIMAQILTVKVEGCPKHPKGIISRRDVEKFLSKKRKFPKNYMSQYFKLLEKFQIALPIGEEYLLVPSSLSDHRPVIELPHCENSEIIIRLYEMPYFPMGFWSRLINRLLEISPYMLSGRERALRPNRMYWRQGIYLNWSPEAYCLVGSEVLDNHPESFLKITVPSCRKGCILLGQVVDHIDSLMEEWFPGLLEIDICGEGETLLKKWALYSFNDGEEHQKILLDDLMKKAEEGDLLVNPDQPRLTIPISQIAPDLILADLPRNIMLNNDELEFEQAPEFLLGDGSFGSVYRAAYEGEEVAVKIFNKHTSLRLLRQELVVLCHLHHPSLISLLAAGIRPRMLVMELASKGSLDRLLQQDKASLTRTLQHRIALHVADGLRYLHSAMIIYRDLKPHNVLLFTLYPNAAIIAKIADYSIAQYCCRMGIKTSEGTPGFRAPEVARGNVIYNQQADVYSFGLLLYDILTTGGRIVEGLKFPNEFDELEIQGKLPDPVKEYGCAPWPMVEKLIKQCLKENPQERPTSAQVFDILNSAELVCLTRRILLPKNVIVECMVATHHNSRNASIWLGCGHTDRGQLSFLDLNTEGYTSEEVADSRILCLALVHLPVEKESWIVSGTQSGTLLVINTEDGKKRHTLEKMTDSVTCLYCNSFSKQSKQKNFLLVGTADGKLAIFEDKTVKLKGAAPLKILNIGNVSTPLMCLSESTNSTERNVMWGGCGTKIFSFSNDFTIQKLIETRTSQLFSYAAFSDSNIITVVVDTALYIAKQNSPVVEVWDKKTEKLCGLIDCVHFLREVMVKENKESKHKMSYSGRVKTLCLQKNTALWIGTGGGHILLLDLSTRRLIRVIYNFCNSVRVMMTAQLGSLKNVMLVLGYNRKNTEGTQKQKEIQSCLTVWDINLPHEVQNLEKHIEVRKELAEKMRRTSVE

In the case of `c1ccc2c(c1)Sc1ccccc1N2CCN1CCOCC1` [J54], the remaining binding at MET was 92%; at MKNK2, 90%; on WNK3, 98%; at FER it was 100%; on GCN2(Kin.Dom.2,S808G) it was 100%; at GSK3A, 80%. Further, the remaining binding on CSF1R came out at 100%; at AMPK-alpha1, 100%; at GAK, 95%; in assay [1] it was 100%; at MST4, 100%; on YSK1, 97%. Further, the remaining binding at WNK1 amounted to 94%; at BUB1, 79%; at LRRK2(G2019S), 38%; on SRPK2, 100%; at RAF1, 100%; at CDC2L2 it was 100%.
